Assay results from ChEMBL document CHEMBL1201862, “PubChem BioAssay data set” (2004).
Calls of active or inactive are those of the source.

Assays:
Format in all cases: functional
[1] = target: ALK tyrosine kinase receptor (Homo sapiens, UniProt Q9UM73);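 also: ALK tested as one member of a kinase panel screen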
[2] = target: T1, Serine/threonine-protein kinase D3 (Homo sapiens, UniProt O94806);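 also: determined within a kinase panel screen, with PRKCN as the panel member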
T1 sequence (O94806 whole entry): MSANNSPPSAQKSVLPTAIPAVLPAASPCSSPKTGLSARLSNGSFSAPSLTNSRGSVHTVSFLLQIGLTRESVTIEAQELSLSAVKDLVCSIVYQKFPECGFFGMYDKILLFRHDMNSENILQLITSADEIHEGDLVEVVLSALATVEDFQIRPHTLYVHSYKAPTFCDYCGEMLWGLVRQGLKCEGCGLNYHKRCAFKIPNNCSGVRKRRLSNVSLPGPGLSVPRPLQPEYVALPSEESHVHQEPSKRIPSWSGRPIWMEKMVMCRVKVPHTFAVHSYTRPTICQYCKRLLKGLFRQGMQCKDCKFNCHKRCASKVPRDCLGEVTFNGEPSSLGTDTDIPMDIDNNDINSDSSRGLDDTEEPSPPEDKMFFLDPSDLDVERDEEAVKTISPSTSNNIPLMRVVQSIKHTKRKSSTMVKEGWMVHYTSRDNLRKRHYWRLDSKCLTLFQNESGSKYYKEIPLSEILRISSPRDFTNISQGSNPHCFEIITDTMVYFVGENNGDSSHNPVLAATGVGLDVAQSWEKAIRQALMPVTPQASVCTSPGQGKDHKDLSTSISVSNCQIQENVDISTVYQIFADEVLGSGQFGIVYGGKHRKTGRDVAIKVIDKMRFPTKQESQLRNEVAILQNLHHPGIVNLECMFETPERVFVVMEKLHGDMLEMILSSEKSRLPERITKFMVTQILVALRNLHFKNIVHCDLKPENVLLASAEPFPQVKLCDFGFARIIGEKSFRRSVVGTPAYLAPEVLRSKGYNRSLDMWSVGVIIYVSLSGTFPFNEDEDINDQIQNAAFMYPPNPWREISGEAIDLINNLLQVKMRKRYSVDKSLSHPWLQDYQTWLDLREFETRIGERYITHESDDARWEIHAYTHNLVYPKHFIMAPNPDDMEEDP

[3] = target: Mitogen-activated protein kinase 8 (Homo sapiens, UniProt P45983);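 also: value comes from one member of a kinome-wide kinase profiling panel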
[4] = target: Fibroblast growth factor receptor 1 (Homo sapiens, UniProt P11362)
[5] = target: T2, Mitogen-activated protein kinase kinase kinase kinase 2 (Homo sapiens, UniProt Q12851);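 also: measured as one member of a kinome-wide kinase panel, with MAP4K2 as the panel entry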
T2 sequence (Q12851 whole entry): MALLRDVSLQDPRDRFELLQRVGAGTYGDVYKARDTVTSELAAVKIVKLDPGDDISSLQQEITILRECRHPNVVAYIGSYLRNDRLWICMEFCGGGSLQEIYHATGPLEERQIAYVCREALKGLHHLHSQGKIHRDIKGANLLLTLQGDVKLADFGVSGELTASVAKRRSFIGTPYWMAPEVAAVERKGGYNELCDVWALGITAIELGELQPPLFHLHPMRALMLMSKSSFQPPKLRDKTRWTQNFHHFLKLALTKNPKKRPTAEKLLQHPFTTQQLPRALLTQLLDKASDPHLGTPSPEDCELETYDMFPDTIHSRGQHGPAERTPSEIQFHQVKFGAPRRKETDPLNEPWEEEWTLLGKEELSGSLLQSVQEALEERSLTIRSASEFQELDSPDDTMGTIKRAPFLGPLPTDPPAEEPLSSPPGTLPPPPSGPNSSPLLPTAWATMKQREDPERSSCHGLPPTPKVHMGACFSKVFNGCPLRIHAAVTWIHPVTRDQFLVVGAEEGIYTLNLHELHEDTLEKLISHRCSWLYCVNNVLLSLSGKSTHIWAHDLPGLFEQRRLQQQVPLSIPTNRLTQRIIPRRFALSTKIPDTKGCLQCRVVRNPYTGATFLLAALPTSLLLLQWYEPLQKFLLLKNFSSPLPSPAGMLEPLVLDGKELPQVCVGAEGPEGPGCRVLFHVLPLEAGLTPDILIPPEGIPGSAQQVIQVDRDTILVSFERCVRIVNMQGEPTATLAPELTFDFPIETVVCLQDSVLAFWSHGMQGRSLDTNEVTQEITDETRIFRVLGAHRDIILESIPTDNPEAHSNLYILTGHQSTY

[6] = target: T3, Serine/threonine-protein kinase Chk1 (Homo sapiens, UniProt O14757);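 also: measured as one member of a kinome-wide kinase profiling panel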
T3 sequence (O14757 whole entry): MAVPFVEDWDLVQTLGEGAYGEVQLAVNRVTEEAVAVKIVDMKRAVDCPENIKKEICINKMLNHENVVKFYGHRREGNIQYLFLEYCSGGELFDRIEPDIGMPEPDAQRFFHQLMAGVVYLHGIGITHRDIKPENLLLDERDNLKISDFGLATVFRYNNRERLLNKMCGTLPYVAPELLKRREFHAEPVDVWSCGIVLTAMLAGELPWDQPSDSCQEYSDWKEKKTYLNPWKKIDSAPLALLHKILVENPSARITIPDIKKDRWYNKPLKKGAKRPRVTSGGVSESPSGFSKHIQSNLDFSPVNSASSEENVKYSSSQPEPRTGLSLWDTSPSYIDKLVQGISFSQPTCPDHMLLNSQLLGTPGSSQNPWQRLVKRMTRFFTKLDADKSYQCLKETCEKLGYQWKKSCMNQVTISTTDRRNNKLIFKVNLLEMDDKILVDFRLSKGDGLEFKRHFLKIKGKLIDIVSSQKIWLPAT

[7] = target: Vascular endothelial growth factor receptor 2 (Homo sapiens, UniProt P35968)
[8] = target: Glycogen synthase kinase-3 beta (Homo sapiens, UniProt P49841);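 also: value comes from a broad kinome profiling panel, with GSK3B as the panel member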
[9] = target: Macrophage colony-stimulating factor 1 receptor (Homo sapiens, UniProt P07333);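 also: value comes from the Navigating the Kinome screening panel, CSF1R member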
[10] = target: Dual specificity tyrosine-phosphorylation-regulated kinase 1A (Homo sapiens, UniProt Q13627);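 also: measured against DYRK1A as one member of a broad kinome profiling panel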
[11] = target: Leukocyte tyrosine kinase receptor (Homo sapiens, UniProt P29376); experiment: Navigating the Kinome. Panel member name: LTK
Sequence of Leukocyte tyrosine kinase receptor (P29376 whole entry): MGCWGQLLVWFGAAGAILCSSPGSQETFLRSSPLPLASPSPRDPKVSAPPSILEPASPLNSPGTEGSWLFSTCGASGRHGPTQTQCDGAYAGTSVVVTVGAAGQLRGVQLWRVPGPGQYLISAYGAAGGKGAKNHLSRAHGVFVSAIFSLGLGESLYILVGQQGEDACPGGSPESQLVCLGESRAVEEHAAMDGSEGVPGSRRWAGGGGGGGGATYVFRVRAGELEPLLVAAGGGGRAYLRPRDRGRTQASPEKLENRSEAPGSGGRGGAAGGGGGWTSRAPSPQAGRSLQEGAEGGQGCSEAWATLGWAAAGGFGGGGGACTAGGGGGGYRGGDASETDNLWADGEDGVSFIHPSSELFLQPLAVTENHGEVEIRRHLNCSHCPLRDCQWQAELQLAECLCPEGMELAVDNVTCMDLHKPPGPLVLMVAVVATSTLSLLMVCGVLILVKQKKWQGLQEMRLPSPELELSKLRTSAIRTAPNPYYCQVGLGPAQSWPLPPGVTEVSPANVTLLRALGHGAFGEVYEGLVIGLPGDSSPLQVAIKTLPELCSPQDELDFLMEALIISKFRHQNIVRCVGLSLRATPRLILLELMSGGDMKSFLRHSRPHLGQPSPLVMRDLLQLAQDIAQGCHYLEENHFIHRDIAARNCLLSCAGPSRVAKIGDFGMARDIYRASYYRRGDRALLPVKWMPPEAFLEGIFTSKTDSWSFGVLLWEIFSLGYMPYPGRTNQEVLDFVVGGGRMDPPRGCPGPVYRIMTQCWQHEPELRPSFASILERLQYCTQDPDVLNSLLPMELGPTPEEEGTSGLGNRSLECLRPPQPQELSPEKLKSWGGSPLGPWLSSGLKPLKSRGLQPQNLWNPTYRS

Sequence of Mitogen-activated protein kinase 8 (P45983 whole entry): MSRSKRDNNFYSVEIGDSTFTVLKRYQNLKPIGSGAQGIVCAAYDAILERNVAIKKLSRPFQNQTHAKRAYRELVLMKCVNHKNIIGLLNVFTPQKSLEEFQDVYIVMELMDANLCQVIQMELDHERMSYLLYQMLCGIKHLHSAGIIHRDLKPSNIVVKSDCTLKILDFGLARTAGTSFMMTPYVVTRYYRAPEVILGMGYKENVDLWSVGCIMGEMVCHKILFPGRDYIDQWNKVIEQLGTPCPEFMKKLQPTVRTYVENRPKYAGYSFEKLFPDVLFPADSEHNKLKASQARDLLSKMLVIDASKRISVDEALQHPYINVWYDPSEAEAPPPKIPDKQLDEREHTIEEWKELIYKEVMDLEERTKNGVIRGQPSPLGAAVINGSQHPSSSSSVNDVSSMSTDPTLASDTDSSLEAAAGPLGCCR
Sequence of Macrophage colony-stimulating factor 1 receptor (P07333 whole entry): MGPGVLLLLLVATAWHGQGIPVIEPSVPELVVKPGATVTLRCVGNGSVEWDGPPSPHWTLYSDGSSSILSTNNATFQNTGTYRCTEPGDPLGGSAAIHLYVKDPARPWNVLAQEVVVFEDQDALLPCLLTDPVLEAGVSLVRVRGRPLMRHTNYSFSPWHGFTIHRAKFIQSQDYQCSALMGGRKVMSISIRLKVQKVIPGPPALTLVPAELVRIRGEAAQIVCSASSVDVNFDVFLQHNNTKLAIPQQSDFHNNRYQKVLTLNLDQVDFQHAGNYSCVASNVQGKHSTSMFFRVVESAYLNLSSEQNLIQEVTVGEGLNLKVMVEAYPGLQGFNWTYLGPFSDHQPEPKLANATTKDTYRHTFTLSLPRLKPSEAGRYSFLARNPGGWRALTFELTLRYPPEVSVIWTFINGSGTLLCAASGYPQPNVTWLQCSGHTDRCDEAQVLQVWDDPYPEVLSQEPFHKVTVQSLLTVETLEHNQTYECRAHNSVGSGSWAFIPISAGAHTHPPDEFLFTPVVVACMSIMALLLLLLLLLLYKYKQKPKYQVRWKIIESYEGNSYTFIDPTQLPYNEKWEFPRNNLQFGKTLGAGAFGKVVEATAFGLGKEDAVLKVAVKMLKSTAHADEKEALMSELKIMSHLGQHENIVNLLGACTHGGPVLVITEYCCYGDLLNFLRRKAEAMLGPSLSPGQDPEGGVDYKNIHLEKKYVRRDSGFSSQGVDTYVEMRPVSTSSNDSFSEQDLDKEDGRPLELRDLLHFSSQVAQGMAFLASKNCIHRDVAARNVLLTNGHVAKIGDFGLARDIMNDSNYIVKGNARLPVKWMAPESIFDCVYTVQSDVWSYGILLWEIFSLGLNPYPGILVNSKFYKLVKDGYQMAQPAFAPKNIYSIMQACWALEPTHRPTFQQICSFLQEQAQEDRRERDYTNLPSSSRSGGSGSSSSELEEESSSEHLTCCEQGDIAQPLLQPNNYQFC
Sequence of Fibroblast growth factor receptor 1 (P11362 whole entry): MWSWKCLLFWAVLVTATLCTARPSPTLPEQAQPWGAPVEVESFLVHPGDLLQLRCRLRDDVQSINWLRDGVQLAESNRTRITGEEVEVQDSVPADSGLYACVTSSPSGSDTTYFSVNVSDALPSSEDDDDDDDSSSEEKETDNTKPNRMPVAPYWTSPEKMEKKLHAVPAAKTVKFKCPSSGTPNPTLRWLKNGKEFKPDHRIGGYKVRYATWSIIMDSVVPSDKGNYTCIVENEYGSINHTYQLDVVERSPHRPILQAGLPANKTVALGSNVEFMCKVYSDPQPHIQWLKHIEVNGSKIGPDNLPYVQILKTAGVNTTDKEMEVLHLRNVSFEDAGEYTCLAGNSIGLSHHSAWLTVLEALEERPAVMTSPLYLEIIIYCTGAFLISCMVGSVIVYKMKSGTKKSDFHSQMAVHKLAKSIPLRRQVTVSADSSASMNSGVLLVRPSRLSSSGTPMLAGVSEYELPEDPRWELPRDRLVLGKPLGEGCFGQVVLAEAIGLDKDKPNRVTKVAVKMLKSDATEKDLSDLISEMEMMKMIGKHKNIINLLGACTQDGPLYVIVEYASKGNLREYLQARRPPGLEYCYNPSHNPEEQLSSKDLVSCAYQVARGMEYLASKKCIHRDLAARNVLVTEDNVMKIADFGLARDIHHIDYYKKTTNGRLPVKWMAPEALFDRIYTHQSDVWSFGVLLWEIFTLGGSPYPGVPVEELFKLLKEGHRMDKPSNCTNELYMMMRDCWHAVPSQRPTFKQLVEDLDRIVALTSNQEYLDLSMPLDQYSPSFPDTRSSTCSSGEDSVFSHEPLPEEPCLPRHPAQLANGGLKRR
Sequence of ALK tyrosine kinase receptor (Q9UM73 whole entry): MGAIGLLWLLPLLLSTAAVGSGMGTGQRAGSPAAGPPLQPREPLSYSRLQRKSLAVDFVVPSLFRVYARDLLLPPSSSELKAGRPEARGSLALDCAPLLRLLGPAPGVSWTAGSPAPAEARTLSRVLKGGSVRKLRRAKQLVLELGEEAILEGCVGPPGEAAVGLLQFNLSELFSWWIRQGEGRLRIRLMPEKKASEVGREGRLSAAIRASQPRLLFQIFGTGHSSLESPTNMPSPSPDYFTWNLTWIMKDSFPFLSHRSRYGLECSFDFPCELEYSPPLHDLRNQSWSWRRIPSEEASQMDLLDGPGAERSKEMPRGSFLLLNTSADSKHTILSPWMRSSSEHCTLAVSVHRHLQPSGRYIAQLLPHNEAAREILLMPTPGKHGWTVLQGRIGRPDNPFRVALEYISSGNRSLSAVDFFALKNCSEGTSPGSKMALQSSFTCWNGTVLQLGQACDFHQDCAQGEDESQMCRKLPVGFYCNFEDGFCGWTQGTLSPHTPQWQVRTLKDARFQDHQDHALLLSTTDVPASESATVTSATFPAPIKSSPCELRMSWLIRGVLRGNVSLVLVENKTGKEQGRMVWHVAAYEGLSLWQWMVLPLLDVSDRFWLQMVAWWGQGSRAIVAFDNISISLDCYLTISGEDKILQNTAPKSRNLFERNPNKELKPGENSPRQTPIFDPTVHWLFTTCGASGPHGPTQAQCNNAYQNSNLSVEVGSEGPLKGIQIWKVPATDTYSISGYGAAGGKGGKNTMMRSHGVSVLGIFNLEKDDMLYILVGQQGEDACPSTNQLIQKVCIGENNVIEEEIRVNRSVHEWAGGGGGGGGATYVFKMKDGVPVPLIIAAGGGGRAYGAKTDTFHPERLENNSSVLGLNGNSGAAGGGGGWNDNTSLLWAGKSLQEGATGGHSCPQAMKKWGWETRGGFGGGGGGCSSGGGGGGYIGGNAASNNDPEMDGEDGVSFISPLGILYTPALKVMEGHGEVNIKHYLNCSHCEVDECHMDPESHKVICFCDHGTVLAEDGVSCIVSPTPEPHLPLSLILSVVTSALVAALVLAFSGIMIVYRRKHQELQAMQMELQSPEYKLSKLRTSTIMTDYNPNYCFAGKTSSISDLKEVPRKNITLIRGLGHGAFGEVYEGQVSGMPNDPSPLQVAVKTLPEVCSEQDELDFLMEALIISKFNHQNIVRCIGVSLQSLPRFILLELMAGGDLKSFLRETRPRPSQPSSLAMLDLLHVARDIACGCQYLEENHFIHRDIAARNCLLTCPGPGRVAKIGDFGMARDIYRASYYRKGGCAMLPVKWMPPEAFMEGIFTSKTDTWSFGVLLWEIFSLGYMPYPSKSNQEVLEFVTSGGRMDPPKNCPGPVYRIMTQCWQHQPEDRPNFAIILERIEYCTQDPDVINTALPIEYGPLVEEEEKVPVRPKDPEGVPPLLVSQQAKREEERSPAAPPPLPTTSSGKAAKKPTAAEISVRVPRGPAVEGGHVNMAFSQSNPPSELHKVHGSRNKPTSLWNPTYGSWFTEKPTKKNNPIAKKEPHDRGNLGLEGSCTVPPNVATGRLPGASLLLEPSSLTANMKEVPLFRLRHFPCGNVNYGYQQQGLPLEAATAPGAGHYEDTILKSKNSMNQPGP

Ki [1]	Ki [2]	Ki [3]	Ki [4]	Ki [5]	Ki [6]	Ki [7]	Ki [8]	Ki [9]	Ki [10]	Ki [11]	Compound
> 1.26 µM (inactive)	0.00631 µM (active)	0.1 µM (active)	3.98 µM (active)	0.0501 µM (active)	2 µM (active)	> 7.94 µM (inactive)	0.2 µM (active)	0.1 µM (active)	0.00316 µM (active)	–	NC1CCC(Nc2nccc(-c3c[nH]c4ncccc34)n2)CC1 (centres undefined)
79.4 µM (active)	12.6 µM (active)	12.6 µM (active)	20 µM (active)	39.8 µM (active)	39.8 µM (active)	7.94 µM (active)	3.16 µM (active)	> 100 µM (inactive)	0.398 µM (active)	20 µM (active)	OCc1cc(-c2ccc3[nH]ncc3c2)on1
79.4 µM (active)	50.1 µM (active)	20 µM (active)	39.8 µM (active)	50.1 µM (active)	63.1 µM (active)	39.8 µM (active)	12.6 µM (active)	39.8 µM (active)	5.01 µM (active)	15.8 µM (active)	CC(C)(O)c1cn(-c2ccc3[nH]ncc3c2)nn1

Compound	Ki [1]	Ki [2]	Ki [3]	Ki [4]	Ki [5]	Ki [6]	Ki [7]	Ki [8]	Ki [9]	Ki [10]	Ki [11]
COC(C(=O)N1Cc2[nH]nc(NC(=O)c3ccc(N4CCN(C)CC4)cc3)c2C1)c1ccccc1 (centres undefined)	–	–	–	–	–	–	–	–	0.158 µM (active)	–	0.0316 µM (active)
